Reference: patent publication US20190002480A1, “Silane-Containing Heterocyclic Compounds and Methods of Use Thereof for the Treatment of Viral Diseases” (Merck Sharp & Dohme Corp., priority 2015, published 2019)
Like-named read-outs stand apart in the source and are kept apart here.

Legend:
HCV replicon GT1a_Y93H = test: Cell-based HCV replicon assay, GT1a Y93H; settings: Hepatitis C virus, 72 h, read-out: GT1a_Y93H EC90
Experimental: (§1) To measure cell-based anti-HCV activity of compounds of the present invention, two complimentary assays were employed using various replicons. In the first assay (“Replicon Assay A”), replicon cells were seeded at 2000 cells/well in 384-well 384-well flat bottom tissue culture treated clear bottom plate (Corning 3707) in the presence of the test compound. Various concentrations of test compound, typically in 10 serial dilutions, were added to the assay mixture, with the starting concentration ranging from 333.3 nM to […]. The final concentration of DMSO was 0.5%. Fetal bovine serum was 5%, in the assay media. Cells were harvested on day 3 by removing media and washing the cells with a suitable wash buffer. The cells are lysed with the addition of 1× Qiagen lysis buffer (Cat #1062731). The replicon RNA level was measured using real time PCR (TaqMan® EZ RT-PCR, Applied Biosystems 403028) with the following primers and probes: […]
(§2) Cyclophilin RNA was used as endogenous control and was amplified in the same reaction as NS5B (multiplex PCR). The real-time RT-PCR reactions were run on ABI PRISM 7900HT Sequence Detection System using the following program: 50° C. for 2 minutes, 60° C. for 30 minutes, 95° C. for 5 minutes, 40 cycles of 94 C for 20 sec, 55 C for 1 minutes.
(§3) The amount of HCV replicon RNA per cell is quantified using a linear regression curve for a known nanogram (ng) amount of HCV replicon total RNA. This is established by plotting the Cycle Threshold values (Ct) from the Neo probe and primer set versus the log (ng) for each HCV replicon total RNA standard. The amount of HCV RNA for each replicon sample is calculated by taking the sample's Ct value, minus the line intercept, divided by the slope of the line. Similarly, the amount of Cyclophilin mRNA per cell is also quantified using a linear regression curve for a known nanogram (ng) amount of HCV replicon total RNA. Again, this is established by plotting the Cycle Threshold values (Ct) from the Cyclophilin probe and primer set versus the log (ng) for each HCV replicon total RNA standard.
(§4) In an alternate assay (“Replicon Assay B”), 1000 cells were seeded per well in a 384-well collagen coated black plate from Greiner bio-one (Cat #781946) in 5% FBS. Inhibitors of this invention were added at 24 h post-seeding, and the plates were incubated for 3 days. Cells were subsequently lysed with Qiagen lysis buffer (Cat #1062731) to extract the RNA. HCV replicon RNA level was measured by real-time PCR using the RNA-to-CT kit from Applied Biosystem (Cat #4392656) and genotype-specific primers and probes. The amplicon was located within NS5B. The sequence of the PCR primers are as follows: 5B.2F, ATGGACAGGCGCCCTGA (SEQ. ID NO. 1); 5B.2R, […] (SEQ. ID NO. 2); the probe sequence was FAM-labeled CACGCCATGCGCTGCGG (SEQ. ID NO. 3). To detect genotype 1A the primer 1A F, TGCGGAACCGGTGAGTACA and 1A R, […] were used; the probe sequence was FAM-[…].
(§5) The real-time RT-PCR reactions were run on ABI PRISM 7900HT or Viia7 Sequence Detection System using the following program: 48° C. for 30 minutes, 95 C for 10 minutes, 40 cycles of 95 C for 15 sec, 60 C for 1 minutes. The 50% effective concentration (EC50) was the drug concentration necessary to achieve an increase in the cycle threshold (CT) of 1 over the projected baseline CT. The EC90 was the drug concentration necessary to achieve an increase in CT of 3.2 over the projected baseline CT.

HCV replicon GT1b_WT = test: Cell-based HCV replicon assay, GT1b WT; settings: Hepatitis C virus, 72 h, read-out: GT1b_WT EC90
Experimental: as §1, §2, §3, §4, §5

HCV replicon GT5 = test: Cell-based HCV replicon assay, GT5; settings: Hepatitis C virus, GT5, 72 h; replicon RNA level by real-time PCR, 3 days
Experimental: as §1, §2, §3, §4, §5

HCV replicon GT3a_WT = test: Cell-based HCV replicon assay, GT3a WT; settings: Hepatitis C virus, 72 h; replicon RNA level by real-time PCR, 3 days
Experimental: as §1, §2, §3, §4, §5

HCV replicon GT6 = test: Cell-based HCV replicon assay, GT6; settings: Hepatitis C virus, GT6, 72 h; replicon RNA level by real-time PCR, 3 days
Experimental: as §1, §2, §3, §4, §5

HCV replicon GT1a_M28V = test: Cell-based HCV replicon assay, GT1a M28V; settings: Hepatitis C virus, 72 h, read-out: GT1a_M28V EC90
Experimental: as §1
(§6) The amount of HCV replicon RNA per cell is quantified using a linear regression curve for a known nanogram (ng) amount of HCV replicon total RNA. […] The amount of HCV RNA for each replicon sample is calculated by taking the sample's Ct value, minus the line intercept, divided by the slope of the line. Similarly, the amount of Cyclophilin mRNA per cell is also quantified using a linear regression curve for a known nanogram (ng) amount of HCV replicon total RNA. […]

HCV replicon GT1a_Q30R = test: Cell-based HCV replicon assay, GT1a Q30R; settings: Hepatitis C virus, 72 h, read-out: GT1a_Q30R EC90
Experimental: as §1, §2, §3, §4, §5

HCV replicon GT3a_Y93H = test: Cell-based HCV replicon assay, GT3a Y93H; settings: Hepatitis C virus, 72 h, read-out: GT3a_Y93H EC90
Experimental: as §1, §2, §3, §4, §5

HCV replicon GT2a = test: Cell-based HCV replicon assay, GT2a; settings: Hepatitis C virus, 72 h, read-out: GT2a EC90
Experimental: as §1, §2, §3, §4, §5

HCV replicon GT2b_31M = test: Cell-based HCV replicon assay, GT2b 31M; settings: Hepatitis C virus, 72 h, read-out: GT2b_31M EC90
Experimental: as §1, §2, §3, §4, §5

HCV replicon GT4 = test: Cell-based HCV replicon assay, GT4; settings: Hepatitis C virus, GT4, 72 h; replicon RNA level by real-time PCR, 3 days
Experimental: as §1, §2, §3, §4, §5

HCV replicon Gt1a_WT = test: Cell-based HCV replicon assay, GT1a WT; settings: Hepatitis C virus, 72 h; replicon RNA level by real-time PCR, 3 days
Experimental: as §1, §6

HCV replicon GT1a_L31V = test: Cell-based HCV replicon assay, GT1a L31V; settings: Hepatitis C virus, 72 h, read-out: GT1a_L31V EC90
Experimental: as §1, §2, §3, §4, §5

[1] = replicon RNA level by real-time PCR, 3 days

| SMILES | EC90 (HCV replicon GT1a_Y93H) | EC90 (HCV replicon GT1b_WT; [1]) | EC90 (HCV replicon GT5) | EC90 (HCV replicon GT3a_WT) | EC90 (HCV replicon GT6) | EC90 (HCV replicon GT1a_M28V) | EC90 (HCV replicon GT1a_Q30R) | EC90 (HCV replicon GT3a_Y93H) | EC90 (HCV replicon GT2a; [1]) | EC90 (HCV replicon GT2b_31M) | EC90 (HCV replicon GT4) | EC90 (HCV replicon Gt1a_WT) | EC90 (HCV replicon GT1a_L31V) | EC90 (HCV replicon GT1b_WT) | EC90 (HCV replicon GT2a) |
| --- | --- | --- | --- | --- | --- | --- | --- | --- | --- | --- | --- | --- | --- | --- | --- |
| COC(=O)N[C@H](C(=O)N1CCC[C@H]1c1ncc(-c2cc(F)c3c(c2)O[C@@H](c2ccc(C4CC4)s2)n2c-3cc3cc(-c4cnc([C@@H]5C[Si](C)(C)CN5C(=O)[C@H](N)c5ccccc5)[nH]4)ccc32)[nH]1)C(C)C [Compound 17] | 6.18 nM | 0.00141 nM | 0.0527 nM | 3.28 nM | 0.105 nM | 0.00192 nM | 0.896 nM | 765 nM | 0.0582 nM | 5.33 nM | 0.0124 nM | 0.00142 nM | 1.76 nM | – | – |
| COC(=O)NC(C(=O)N1C[Si](C)(C)C[C@H]1c1ncc(-c2ccc3c(c2)cc2n3[C@H](c3ccc(C4CC4)s3)Oc3cc(-c4cnc([C@@H]5CCCN5C(=O)[C@@H](NC(=O)OC)C(C)C)[nH]4)cc(F)c3-2)[nH]1)C1CCC(F)(F)CC1 (some centres unmarked) [Compound 16] | 0.972 nM | – | 0.0173 nM | 1.68 nM | 0.0252 nM | – | 0.0285 nM | 3690 nM | – | 2.83 nM | 0.00183 nM | – | 0.0507 nM | 0.00184 nM | 0.00575 nM |
| COC(=O)N[C@H](C(=O)N1CCC[C@H]1c1ncc(-c2cc(F)c3c(c2)O[C@@H](c2ccc(C4CC4)s2)n2c-3cc3cc(-c4cnc([C@@H]5C[Si](C)(C)CN5C(=O)[C@@H](NC(=O)OC)[C@@H]5CCOC(C)(C)C5)[nH]4)ccc32)[nH]1)C(C)C [Compound 15] | 0.185 nM | – | 0.0065 nM | 0.173 nM | 0.0144 nM | – | 0.0047 nM | 442 nM | – | 0.314 nM | 0.00136 nM | – | 0.0075 nM | 0.00102 nM | 0.0021 nM |
| COC(=O)NC(C(=O)N1CCC[C@H]1c1ncc(-c2ccc3c(c2)cc2n3[C@H](c3cnc(C4CC4)s3)Oc3cc(-c4cnc([C@@H]5C[Si](C)(C)CN5C(=O)[C@@H](NC(=O)OC)C5CCC(F)(F)CC5)[nH]4)cc(F)c3-2)[nH]1)C(C)C (some centres unmarked) [Compound 9] | 0.29 nM | – | 0.009 nM | 2.24 nM | 0.0109 nM | – | 0.0247 nM | 322 nM | – | 4.24 nM | 0.00137 nM | – | 0.026 nM | 0.00108 nM | 0.00243 nM |
| COC(=O)NC(C(=O)N1C[Si](C)(C)C[C@H]1c1ncc(-c2ccc3c(c2)cc2n3[C@H](c3ccc(C4CC4)s3)Oc3cc(-c4cnc([C@@H]5CCCN5C(=O)[C@@H](NC(=O)OC)C(C)C)[nH]4)cc(F)c3-2)[nH]1)C1CCOCC1 (some centres unmarked) [Compound 14] | 0.02 nM | – | 0.013 nM | 0.018 nM | 0.0842 nM | – | 0.0027 nM | 175 nM | – | 0.038 nM | 0.00111 nM | – | 0.0062 nM | 0.00131 nM | 0.0042 nM |
| COC(=O)NC(C(=O)N1CCC[C@H]1c1ncc(-c2ccc3c(c2)cc2n3[C@H](c3cnc(C4CC4)s3)Oc3cc(-c4cnc([C@@H]5C[Si](C)(C)CN5C(=O)[C@@H](NC(=O)OC)C5CCCCC5)[nH]4)cc(F)c3-2)[nH]1)C(C)C (some centres unmarked) [Compound 7] | 0.022 nM | – | 0.0246 nM | 0.051 nM | 0.0906 nM | – | 0.0039 nM | 82 nM | – | 0.132 nM | 0.00147 nM | – | 0.0045 nM | 0.00244 nM | 0.00177 nM |
